The values below come from ChEMBL document CHEMBL1146570, “Eudesmane derivatives and other sesquiterpenes from Laggera alata” (J Nat Prod, 2003).

The test system of assay [1] is KB. In words: Cytotoxicity against human KB cells after 72 hrs. Type of assay: functional, cell-based.
The subject of assay [2] is SK-MEL. Put plainly: Cytotoxicity against human SK-MEL cells at 20 ug/mL after 72 hrs. Type of assay: functional.
The subject of assay [3] is A549. In words: Cytotoxicity against human A549 cells at 20 ug/mL after 72 hrs. The following applies: A549, 72 h. Type of assay: functional.

Broadly, the IC50 is the concentration at which inhibition is half-maximal. Read a high IC50 as weaker potency in that assay. Turning to `C=C(C(=O)O)[C@@H]1CC[C@@]2(C)CC[C@@H](O)[C@@](C)(O)[C@@H]2C1`, in assay [1], the IC50 is above 100 µM.

In general, inhibition refers to how much of the control response was suppressed. A high value points to a response far below the control. As for `C=C(C(=O)O)[C@@H]1CC[C@@]2(C)CCC[C@@](C)(O)[C@@H]2C1` [ILICIC ACID], the inhibition at 20 µg/mL in assay [2] is 23.6%; in assay [3], 10.3%.
